Results taken from patent publication US10202361B2, “Pyridazinones as herbicides” (E I DU PONT DE NEMOURS AND COMPANY, priority 2014, dated 2019).

Assays:
Format in all cases: in vivo
[1] = tested on: barnyardgrass (Echinochloa crus-galli); assay: Test B flooded paddy test; details: Flood, 125 g ai/ha; scale of 0 to 100, 0 is no effect, 100 is complete control; 13 to 15 d
Experimental: (§1) Plant species in the flooded paddy test selected from rice (Oryza sativa), small-flower sedge, umbrella (small-flower umbrella sedge, Cyperus difformis), ducksalad (Heteranthera limosa), and barnyardgrass (Echinochloa crus-galli) were grown to the 2-leaf stage for testing. At time of treatment, test pots were flooded to 3 cm above the soil surface, treated by application of test compounds directly to the paddy water, and then maintained at that water depth for the duration of the test. Treated plants and controls were maintained in a greenhouse for 13 to 15 d, after which time all species were compared to controls and visually evaluated. Plant response ratings, summarized in Table B, are based on a scale of 0 to 100 where 0 is no effect and 100 is complete control. A dash (-) response means no test result.

[2] = tested on: ducksalad (Heteranthera limosa); assay: Test B flooded paddy test; details: Flood, 125 g ai/ha; scale of 0 to 100, 0 is no effect, 100 is complete control; 13 to 15 d
Experimental: as §1

[3] = tested on: sedge, umbrella (small-flower umbrella sedge, Cyperus difformis); assay: Test B flooded paddy test; details: Flood, 125 g ai/ha; scale of 0 to 100, 0 is no effect, 100 is complete control; 13 to 15 d
Experimental: as §1

[4] = tested on: rice (Oryza sativa); assay: Test B flooded paddy test; details: Flood, 125 g ai/ha; scale of 0 to 100, 0 is no effect, 100 is complete control; 13 to 15 d
Experimental: as §1

[5] = tested on: crabgrass, Large (large crabgrass, Digitaria sanguinalis); assay: Test A pre-/postemergence greenhouse herbicide test; details: 0 to 100 scale (0 no effect, 100 complete control), approx. 10 d
Text: (§2) Seeds of plant species selected from barnyardgrass (Echinochloa crus-galli), crabgrass, Large (large crabgrass, Digitaria sanguinalis), foxtail, giant (giant foxtail, Setaria faberii), morningglory (Ipomoea spp.), pigweed (Amaranthus retroflexus), velvetleaf (Abutilon theophrasti), wheat (Triticum aestivum), and corn (Zea mays) were planted into a blend of loam soil and sand and treated preemergence with a directed soil spray using test chemicals formulated in a non-phytotoxic solvent mixture which included a surfactant. At the same time these species were also treated with postemergence applications of test chemicals formulated in the same manner.
(§3) Plants ranged in height from 2 to 10 cm and were in the one- to two-leaf stage for the postemergence treatment. Treated plants and untreated controls were maintained in a greenhouse for approximately 10 d, after which time all treated plants were compared to untreated controls and visually evaluated for injury. Plant response ratings, summarized in Table A, are based on a 0 to 100 scale where 0 is no effect and 100 is complete control. A dash (-) response means no test result.

[6] = tested on: corn (Zea mays); assay: as above; details: 0 to 100 scale (0 no effect, 100 complete control), approx. 10 d
Text: as §2, §3

[7] = tested on: barnyardgrass (Echinochloa crus-galli); assay: as above; details: 0 to 100 scale (0 no effect, 100 complete control), approx. 10 d
Text: as §2, §3

[8] = tested on: morningglory (Ipomoea spp.); assay: as above; details: 0 to 100 scale (0 no effect, 100 complete control), approx. 10 d
Text: as §2, §3

[9] = tested on: wheat (Triticum aestivum); assay: as above; details: 0 to 100 scale (0 no effect, 100 complete control), approx. 10 d
Text: as §2, §3

[10] = tested on: velvetleaf (Abutilon theophrasti); assay: as above; details: 0 to 100 scale (0 no effect, 100 complete control), approx. 10 d
Text: as §2, §3

[11] = tested on: pigweed (Amaranthus retroflexus); assay: as above; details: 0 to 100 scale (0 no effect, 100 complete control), approx. 10 d
Text: as §2, §3

[12] = tested on: foxtail, giant (giant foxtail, Setaria faberii); assay: as above; details: 0 to 100 scale (0 no effect, 100 complete control), approx. 10 d
Text: as §2, §3

Row | Compound | Plant response rating, Barnyardgrass [1] | Plant response rating, Ducksalad [2] | Plant response rating, Sedge, Umbrella [3] | Plant response rating, Rice [4] | Plant response rating, Crabgrass, Large ([5]; Postemergence, 125 g ai/ha) | Plant response rating, Crabgrass, Large ([5]; Postemergence, 500 g ai/ha) | Plant response rating, Crabgrass, Large ([5]; Preemergence, 125 g ai/ha) | Plant response rating, Crabgrass, Large ([5]; Preemergence, 500 g ai/ha) | Plant response rating, Corn ([6]; Postemergence, 125 g ai/ha) | Plant response rating, Corn ([6]; Postemergence, 500 g ai/ha) | Plant response rating, Corn ([6]; Preemergence, 125 g ai/ha) | Plant response rating, Corn ([6]; Preemergence, 500 g ai/ha) | Plant response rating, Barnyardgrass ([7]; Postemergence, 125 g ai/ha) | Plant response rating, Barnyardgrass ([7]; Postemergence, 500 g ai/ha) | Plant response rating, Barnyardgrass ([7]; Preemergence, 125 g ai/ha) | Plant response rating, Barnyardgrass ([7]; Preemergence, 500 g ai/ha) | Plant response rating, Morningglory ([8]; Postemergence, 125 g ai/ha) | Plant response rating, Morningglory ([8]; Postemergence, 500 g ai/ha) | Plant response rating, Morningglory ([8]; Preemergence, 125 g ai/ha) | Plant response rating, Morningglory ([8]; Preemergence, 500 g ai/ha) | also measured
1 | CCCOc1cc(=O)n(-c2ccc(C(F)(F)F)cc2)nc1Cc1ccnc(C(F)(F)F)c1 [Compound 19] | 0 | 0 | 0 | 0 | 10 | 20 | 70 | 90 | 10 | 10 | 0 | 0 | 10 | 20 | 0 | 10 | 10 | 30 | 0 | 10 | Plant response rating, Wheat ([9]; Postemergence, 125 g ai/ha): 0; Plant response rating, Wheat ([9]; Postemergence, 500 g ai/ha): 10; Plant response rating, Wheat ([9]; Preemergence, 125 g ai/ha): 0; Plant response rating, Wheat ([9]; Preemergence, 500 g ai/ha): 0; Plant response rating, Velvetleaf ([10]; Postemergence, 125 g ai/ha): 10; Plant response rating, Velvetleaf ([10]; Postemergence, 500 g ai/ha): 50; Plant response rating, Velvetleaf ([10]; Preemergence, 125 g ai/ha): 0; Plant response rating, Velvetleaf ([10]; Preemergence, 500 g ai/ha): 10; Plant response rating, Pigweed ([11]; Postemergence, 125 g ai/ha): 80; Plant response rating, Pigweed ([11]; Postemergence, 500 g ai/ha): 80; Plant response rating, Pigweed ([11]; Preemergence, 125 g ai/ha): 60; Plant response rating, Pigweed ([11]; Preemergence, 500 g ai/ha): 70; Plant response rating, Foxtail, Giant ([12]; Postemergence, 125 g ai/ha): 10; Plant response rating, Foxtail, Giant ([12]; Postemergence, 500 g ai/ha): 20; Plant response rating, Foxtail, Giant ([12]; Preemergence, 125 g ai/ha): 40; Plant response rating, Foxtail, Giant ([12]; Preemergence, 500 g ai/ha): 70
2 | CN(C)c1cc(=O)n(-c2ccc(F)cc2)nc1Cc1ccnc(C(F)(F)F)c1 [Compound 20] | 0 | 0 | 0 | 0 | 50 | 90 | 100 | 100 | 30 | 60 | 0 | 10 | 50 | 90 | 20 | 90 | 50 | 100 | 10 | 60 | Plant response rating, Wheat ([9]; Postemergence, 125 g ai/ha): 0; Plant response rating, Wheat ([9]; Postemergence, 500 g ai/ha): 50; Plant response rating, Wheat ([9]; Preemergence, 125 g ai/ha): 0; Plant response rating, Wheat ([9]; Preemergence, 500 g ai/ha): 30; Plant response rating, Velvetleaf ([10]; Postemergence, 125 g ai/ha): 60; Plant response rating, Velvetleaf ([10]; Postemergence, 500 g ai/ha): 70; Plant response rating, Velvetleaf ([10]; Preemergence, 125 g ai/ha): 20; Plant response rating, Velvetleaf ([10]; Preemergence, 500 g ai/ha): 50; Plant response rating, Pigweed ([11]; Postemergence, 125 g ai/ha): 90; Plant response rating, Pigweed ([11]; Postemergence, 500 g ai/ha): 100; Plant response rating, Pigweed ([11]; Preemergence, 125 g ai/ha): 100; Plant response rating, Pigweed ([11]; Preemergence, 500 g ai/ha): 100; Plant response rating, Foxtail, Giant ([12]; Postemergence, 125 g ai/ha): 40; Plant response rating, Foxtail, Giant ([12]; Postemergence, 500 g ai/ha): 80; Plant response rating, Foxtail, Giant ([12]; Preemergence, 125 g ai/ha): 80; Plant response rating, Foxtail, Giant ([12]; Preemergence, 500 g ai/ha): 100
3 | CN(C)c1cc(=O)n(-c2ccc(C(F)(F)F)cc2)nc1Cc1ccnc(C(F)(F)F)c1 [Compound 21] | 0 | 0 | 90 | 0 | 20 | 60 | 80 | 100 | 20 | 40 | 0 | 0 | 40 | 50 | 10 | 30 | 30 | 60 | 0 | 10 | Plant response rating, Wheat ([9]; Postemergence, 125 g ai/ha): 20; Plant response rating, Wheat ([9]; Postemergence, 500 g ai/ha): 30; Plant response rating, Wheat ([9]; Preemergence, 125 g ai/ha): 0; Plant response rating, Wheat ([9]; Preemergence, 500 g ai/ha): 10; Plant response rating, Velvetleaf ([10]; Postemergence, 125 g ai/ha): 60; Plant response rating, Velvetleaf ([10]; Postemergence, 500 g ai/ha): 80; Plant response rating, Velvetleaf ([10]; Preemergence, 125 g ai/ha): 0; Plant response rating, Velvetleaf ([10]; Preemergence, 500 g ai/ha): 20; Plant response rating, Pigweed ([11]; Postemergence, 125 g ai/ha): 90; Plant response rating, Pigweed ([11]; Postemergence, 500 g ai/ha): 90; Plant response rating, Pigweed ([11]; Preemergence, 125 g ai/ha): 100; Plant response rating, Pigweed ([11]; Preemergence, 500 g ai/ha): 100; Plant response rating, Foxtail, Giant ([12]; Postemergence, 125 g ai/ha): 30; Plant response rating, Foxtail, Giant ([12]; Postemergence, 500 g ai/ha): 50; Plant response rating, Foxtail, Giant ([12]; Preemergence, 125 g ai/ha): 30; Plant response rating, Foxtail, Giant ([12]; Preemergence, 500 g ai/ha): 70
4 | CCCc1cc(=O)n(-c2ccc(F)cc2)nc1Cc1ccnc(C(F)(F)F)c1 [Compound 24] | 0 | 30 | 90 | 20 | 70 | 90 | 100 | 100 | 50 | 60 | 30 | 50 | 70 | 90 | 70 | 100 | 50 | 90 | 30 | 80 | Plant response rating, Wheat ([9]; Postemergence, 125 g ai/ha): 50; Plant response rating, Wheat ([9]; Postemergence, 500 g ai/ha): 70; Plant response rating, Wheat ([9]; Preemergence, 125 g ai/ha): 30; Plant response rating, Wheat ([9]; Preemergence, 500 g ai/ha): 50; Plant response rating, Velvetleaf ([10]; Postemergence, 125 g ai/ha): 80; Plant response rating, Velvetleaf ([10]; Postemergence, 500 g ai/ha): 80; Plant response rating, Velvetleaf ([10]; Preemergence, 125 g ai/ha): 30; Plant response rating, Velvetleaf ([10]; Preemergence, 500 g ai/ha): 80; Plant response rating, Pigweed ([11]; Postemergence, 125 g ai/ha): 100; Plant response rating, Pigweed ([11]; Postemergence, 500 g ai/ha): 100; Plant response rating, Pigweed ([11]; Preemergence, 125 g ai/ha): 100; Plant response rating, Pigweed ([11]; Preemergence, 500 g ai/ha): 100; Plant response rating, Foxtail, Giant ([12]; Postemergence, 125 g ai/ha): 70; Plant response rating, Foxtail, Giant ([12]; Postemergence, 500 g ai/ha): 80; Plant response rating, Foxtail, Giant ([12]; Preemergence, 125 g ai/ha): 100; Plant response rating, Foxtail, Giant ([12]; Preemergence, 500 g ai/ha): 100
